Test results from patent US20240307283A1, “COMPOSITIONS AND METHODS FOR DECREASING PIGMENTATION” (The General Hospital Corporation, priority 2021, published 2024).

Columns and labels:
NNT = test: Immunoblot of NNT after redox modulators; type: cell-based, human; settings: UACC257, NAC 5 mM, MitoTEMPO 20 μM, H2O2 100 μM, daily for 72 hours
Method: Immunoblotting: Whole-cell protein lysates were prepared using RIPA lysis buffer (Sigma-Aldrich, #R0278) supplemented with Protease and Phosphatase Inhibitor (ThermoFisher Scientific, #P178445). Protein concentrations were quantified using the Pierce BCA protein assay (ThermoFisher Scientific, #23225). Immunoblotting was performed by standard techniques using 4-15% Criterion TGX Precast Midi Protein gels (Bio-Rad Laboratories, #5671084) and transferring to 0.2 μm nitrocellulose membranes (Bio-Rad Laboratories, #1620112). Membranes were blocked with 5% non-fat milk (Boston BioProducts, #P-1400) in PBS containing 0.1% […] and incubated with one of the following primary antibodies at the indicated dilution (antibody sources are in the Key Resources Table): 1:20 dilution of anti-MITF monoclonal antibody CS, 1:1,000 dilution of anti-Tyrosinase clone T311, 1:1,000 dilution of anti-Mitofusin-2 antibody [6A8], 1:500 dilution of TRP2/DCT antibody, 1:1,000 dilution of anti-NNT antibody [8B4BB10], 1:1,000 dilution of anti-IDH1 ([…]) antibody, 1:1,000 dilution of p53 antibody [PAb 240], 1:1,000 dilution of TYRP1 antibody [EPR21960], 1:1,000 dilution of mouse monoclonal antibody Pmel17 (E-7), or 1:1,000 dilution of LC3B (D11) rabbit monoclonal antibody. Incubation with the appropriate secondary antibody followed, either a 1:5,000 dilution of donkey anti-Rabbit IgG-HRP or a 1:3,000 dilution of Amersham ECL mouse IgG, HRP. To verify equal loading of samples, membranes were re-probed with a 1:20,000 dilution of monoclonal anti-β-actin-peroxidase (Sigma Aldrich, #A3854). Protein bands were visualized using Western Lightning Plus ECL (PerkinElmer, #NEL105001EA) and quantified using ImageJ software (NIH).

human skin = test: Topical treatment of a human subject (skin type 2); type: in vivo; settings: 100 uM in DMSO, 15 days, twice per day
Method: A human subject with skin type 2 was treated with Hexetidine 100 uM in DMSO for 15 days, twice per day, individual.

human skin explants [1] = test: Depigmentation of human skin explants by NNT activators; type: cell-based; settings: after 36 hours, DMSO-based carrier, FIGS. 13A-B
Method: Skin samples considered surgical waste were obtained de-identified from healthy donors (IRB #2013P000093) undergoing reconstructive surgery, according to institutional regulations. Full thickness human abdominal skin explants were cultured in petri dishes with a solid phase and liquid phase phenol red free DMEM medium containing 20% penicillin/streptomycin/glutamine, 5% fungizone (Gibco), and 10% fetal bovine serum. Compounds were applied strictly on top of the explants, making sure no drip occurred into the underlying media. For UV irradiation experiments, a UV lamp (UV Products) was used at 1000 mJ/cm^2 UVB.
The ability of ASS, Usnic acid, 4-hexylresorcinol, candesartan, Nigericin, elaidylphosphocholine, hexitidine, naproxol, and Ginkgolic acid to depigment skin was tested in human skin explants. A DMSO-based carrier solution was used. DMSO was used as a negative control. […]

tyrosinase = test: Cycloheximide chase assay of tyrosinase protein stability; type: cell-based, human; settings: UACC257, 5 mM NAC, 0.1 mM NADPH, 20 μM MitoTEMPO for 48 h, then CHX
Method: Cycloheximide chase assay: 72 h after siRNA transfection (sicontrol or siNNT), UACC257 melanoma cells were treated with a protein synthesis inhibitor, cyclohexamide (CHX, Sigma Aldrich #C7698, 50 μg/ml), for the indicated times and then immediately subjected to immunoblotting for tyrosinase protein expression. The expression of tyrosinase was quantified using ImageJ software based on band intensities and normalized to the intensities of the corresponding β-actin bands. The normalized tyrosinase expression was then defined as relative tyrosinase expression by setting the mean values at t=0 in each experimental group to 1.0. […] The siRNA-transfected cells were cultured for an additional 48 h in the presence of these agents and then examined by the CHX chase assay as described above. pLJM-1-EGFP or pLJM1-NNT/FLAG was introduced into UACC257 cells using Lipofectamine 3000, 48 after transfection, the transfection medium was replaced with fresh medium containing DMSO or 10 μM MG132 (Sigma Aldrich #M8699) and pre-incubated for 6 h. Then. CHX was added to assess tyrosinase protein stability as described above.

UACC257 cells = test: siNNT-induced pigmentation with antioxidants, melanin content; type: cell-based, human; settings: NAC 5 mM, MitoTEMPO 20 μM daily for 72 h; NADPH 0.1 M
Method: (§1) sIRNA transfection: A single treatment of 10 nmol/L of siRNA was delivered to a 60% confluent culture by transfection with Lipofectamine RNAiMAX (Life Technologies, #13778150) according to the manufacturer's recommendations. After 48-72 h of transfection, total RNA or protein was harvested. Melanin quantification: Equal numbers of cells were plated in 6-well plates. The cells were then harvested 72-96 hours post siRNA or NNT inhibitors compounds, as indicated in the legends, pelleted, washed in PBS and counted. 10^6 cells were used for measurement of protein concentration with the Pierce BCA protein assay (Thermo Fisher Scientific, #23225) and 10^6 cells were resuspended in 60 μl of 1 N NaOH solution and incubated at 60° C. for 2 h or until the melanin was completely dissolved. After cooling down to room temperature, samples were centrifuged at 500×g for 10 min and the supernatants were loaded onto a 96-well plate. The melanin content was determined by measuring the absorbance at 405 nm on an Envision plate reader, compared with a melanin standard (0 to 50 μg/ml; Sigma Aldrich, #M8631). Melanin content was expressed as micrograms per milligram of protein.

[2] = system: primary human melanocytes; test: Melanosome maturation by transmission electron microscopy; type: cell-based; settings: NAC 5 mM or MitoTEMPO 20 μM; for siNNT-induced melanosome maturation: daily for 96 h; for total number of melanosomes per um^2: daily for 96 hours
Method: Transmission electron microscopy: Cultured primary human melanocytes were grown in Medium 254 in 6-well transwell plates. Ninety-six h post siRNA or overexpression treatment, the cells were fixed with a modified Kamovsky's fixative (2% paraformaldehyde/2.5% glutaraldehyde in 0.1 M sodium cacodylate buffer, pH 7.4) for at least 2 h on a gentle rotator, followed by rinsing several times with 0.1 M cacodylate buffer. Then, the cells were treated with 1% osmium tetroxide/0.1 M cacodylate buffer for 1 h, rinsed thoroughly in 0.1 M cacodylate buffer, scraped, and the cell suspensions were transferred into 15 ml centrifuge tubes and centrifuged (3,000 rpm) for 15 min at 4° C.). Pelleted material was embedded in 2% agarose, dehydrated through an ethanol gradient (series of solutions from 30% to 100% ethanol), dehydrated briefly in 100% propylene oxide, then allowed to infiltrate overnight on a gentle rotator in a 1:1 mix of propylene oxide and Eponate resin (Ted Pella, Inc., kit with DMP30, #18010′). The following day, specimens were transferred into fresh 100% Eponate resin for 2-3 hours, then embedded in flat molds in 100% fresh Eponate resin, and embeddings were allowed to polymerize for 24-48 h at 60° C. Thin (70 nm) sections were cut using a Leica EM UC7 ultramicrotome, collected onto formvar-coated grids, stained with 2% uranyl acetate and Reynold's lead citrate, and examined in a JEOL JEM 1011 transmission electron microscope at 80 kV. Images were collected using an AMT digital imaging system with proprietary image capture software (Advanced Microscopy Techniques, Danvers, MA). Measurements of distances between melanosomes and mitochondria were quantified in FIJI (ImageJ) (Schindelin et al., 2012) by applying a customized macro to TEM micrographs. Melanosomes (N=˜50) were randomly selected for each condition within the whole image data set. Thirty Euclidean distances from the melanosome surface to the closest mitochondria surface were measured in nm. From these 30 single measurements the mean was calculated to give a final single mean value per melanosome-mitochondria event. A total of ˜50 events (N) were quantified per condition. Data were plotted and statistically analyzed using Prism 8 (Version 8.4.3). […] Cell area (μm^2), number of melanosome-mitochondria contacts, and number of mitochondria were quantified in FIJI (ImageJ) using polygon and multi-point selection tools. Melanosome identification and quantification were performed with images at 40,000× magnification or higher. […] All identifiable melanosomes in 4 cells per condition were quantified and classified, and the proportions of each stage were normalized to cell cytosolic area (determined by ImageJ).

murine Melan-A cells = test: Melanin content of Melan-A cells with NNT inhibitors; type: cell-based, mouse; settings: 2 mM, FIG. 3A
Method: Murine Melan-A (Bennett et al., 1987) cells were obtained from the Wellcome Trust Functional Genomics Cell Bank. Melan-A cells were grown in RPMI 1640 supplemented with 10% FBS or FetalPlex (Gemini Bio-Products, #100-602), 100,000 U/L penicillin, 100 mg/L streptomycin sulphate, 100× Glutamax, and 200 nM TPA.
In vitro culture with NNT inhibitors: 2,3-Butanedione 97% (2,3 BD) (Sigma Aldrich, #B85307) (1 μM, 10 μM, 100 μM, 2 mM), N,N-Dicyclohexylcarbodiimide (DCC) (Sigma Aldrich, #D80002) (1 mM, 2 mM, 10 mM), and Palmitoyl coenzyme A lithium salt (Sigma Aldrich, #P9716) (10 μM, 2 mM) were reconstituted with DMSO (American Type Culture Collection, 4-X).
as §1, with “Melanin” for “sIRNA transfection: A single treatment of 10 nmol/L of siRNA was delivered to a 60% confluent culture by transfection with Lipofectamine RNAiMAX (Life Technologies, #13778150) according to the manufacturer's recommendations. After 48-72 h of transfection, total RNA or protein was harvested. Melanin”

[3] = system: human melanocytes, dermal fibroblasts, and keratinocytes; test: Cell viability of human skin cells with NNT inhibitors; type: cell-based; settings: up to 10 μM, FIG. 10B
Method: Primary human keratinocytes were cultured in EpiLife® medium supplemented with human keratinocyte growth supplement (HKGS, ThermoFisher Scientific). Primary human fibroblasts were cultured in medium 106 supplemented with low serum growth supplement (LSGS, ThermoFisher Scientific). 10^6 and […] cells were plated per well of 6-well and 96-well plates, respectively. Drugs indicated in the figure legends were dissolved in DMSO and added 1:1000 to the culture media for 24 h at the concentrations indicated.
Cell viability assay: Human melanoma cell lines and isolated primary cultured human melanocytes were propagated and tested in early passage (Passages 7 to 9). The effects of NNT inhibitors (2,3BD, DCC, and Palmitoyl coenzyme A lithium salt) on cell viability were evaluated by the CellTiter-Glo Luminescent Cell Viability Assay (Promega, #G7570) and measurement of luminescence was performed on an EnVision 2104 Multilabel Reader (PerkinElmer). Human melanoma cell lines and primary melanocytes were plated on 96-well white plates (10,000 cells/well) and were treated with the NNT inhibitors at the indicated concentrations for 24 h.

human skin explants [4] = test: Pigmentation of human skin explants with topical NNT inhibitors; settings: human skin explants, data not shown

siNNT-increased tyrosinase protein stability (tyrosinase)	SMILES	NNT protein levels (NNT)	siNNT-mediated increase in pigmentation (UACC257 cells)	siNNT-induced melanosome maturation [2]	total number of melanosomes per um^2 [2]	other results
	OO [H2O2, Hydrogen peroxide]	did not impact NNT protein levels				
	CCCCC(CC)CN1CN(CC(CC)CCCC)CC(C)(N)C1 (centres unmarked) [Hexetidine, 1,3-bis(2-ethylhexyl)-5-methyl-1,3-diazinan-5-amine]					depigmentation of human skin (human skin): successful depigmentation; irritation (human skin): without significant irritation; ability to depigment skin (human skin explants [1]): depigmenting effects
prevented	CC(=O)N[C@@H](CS)C(=O)O [NAC, N-acetylcysteine]	did not impact NNT protein levels	inhibited the siNNT-mediated increase in pigmentation	prevented the siNNT-induced phenotype	not altered	
prevented	NC(=O)C1=CN([C@@H]2O[C@H](COP(=O)(O)OP(=O)(O)OC[C@H]3O[C@@H](n4cnc5c(N)ncnc54)[C@H](OP(=O)(O)O)[C@@H]3O)[C@@H](O)[C@H]2O)C=CC1 [NADPH, β-nicontinamide adenine dinucleotide 2′-phosphate]		inhibited the siNNT-mediated increase in pigmentation			
	CCCCCCCCCCCCCCCC(=O)SCCNC(=O)CCNC(=O)[C@H](O)C(C)(C)COP(=O)(O)OP(=O)(O)OC[C@H]1O[C@@H](n2cnc3c(N)ncnc32)[C@H](O)[C@@H]1OP(=O)(O)O.[Li] [Palmitoyl-CoA, Palmitoyl coenzyme A lithium salt]					melanin content (murine Melan-A cells): not; toxicity (viability) [3]: no significant toxicity; effect on pigmentation (human skin explants [4]): no effect on pigmentation; penetration of the epidermis (human skin explants [4]): did not penetrate the epidermis

SMILES	siNNT-increased tyrosinase protein stability (tyrosinase)	NNT protein levels (NNT)	siNNT-mediated increase in pigmentation (UACC257 cells)	siNNT-induced melanosome maturation [2]	total number of melanosomes per um^2 [2]	other results
CC1(C)CC(NC(=O)C[P+](c2ccccc2)(c2ccccc2)c2ccccc2)CC(C)(C)N1[O] [MitoTEMPO]	prevented	did not impact NNT protein levels	inhibited the siNNT-mediated increase in pigmentation	prevented the siNNT-induced phenotype	not altered	
